Assay results: patent publication US5057520A, “7-(peptidylpyrolidinyl)naphthyridine antibacterial compounds” (Abbott Laboratories, priority 1989, dated 1991)
In brackets after ≈: the same amount, converted by molar mass. Structures can show the parent of a compound that is named as a salt.

Key:
Stap. Aureus CMX 553 = test: Second in vitro MIC test, Brain Heart Infusion Broth (BHIB); assay type: cell-based
Strep. pyogenes EES 61 = test: as above; assay type: cell-based
E. Coli Juhl [1] = test: as above; assay type: cell-based
Ps. Aeruginosa A5007 = test: as above; assay type: cell-based
E. Coli Juhl [2] = test: Acute mouse protection test; assay type: in vivo; settings: mice infected i.p. with E. Coli JUHL, observed 7 days; for SC (ED50): SC dosing at 1 and 5 hours post-infection; for Oral (ED50): oral dosing at 1 and 5 hours post-infection
P. Aeruginosa A5007 = test: Acute mouse protection test; assay type: in vivo; settings: mice infected i.p. with P. Aeruginosa A5007, observed 7 days; for SC (ED50): SC dosing at 1 and 5 hours post-infection; for Oral (ED50): oral dosing at 1 and 5 hours post-infection
Stap. Aureus NCTC 10649 = test: Acute mouse protection test; assay type: in vivo; settings: mice infected i.p. with Stap. Aureus NCTC 10649, observed 7 days; for SC (ED50): SC dosing at 1 and 5 hours post-infection; for Oral (ED50): oral dosing at 1 and 5 hours post-infection
[3] = Conversion of prodrug to parent drug in whole blood at 37° C.; assay type: in vitro ADME, Dog
Protocol: An aqueous solution of prodrug (Z) is spiked into fresh whole blood containing sodium heparin as an anticoagulant. The sample is mixed gently by inversion and placed in a 37° waterbath. At selected time intervals an 0.5 ml aliquot of blood is removed and placed in a chilled 1.5 ml centrifuge tube (ice temperature). Samples are centrifuges at 13,000 rpm for two minutes to separate plasma. An 0.2 ml aliquot of the plasma sample is combined with 0.2 ml internal standard (7-(4-amino-2-methyl-1-pyrrolidinyl)-1-(2,4-difluorophenyl)-6-fluoro-1,4-d ihydro-4-oxo-1,8-naphthyridine-3-carboxylic acid in 0.2M sodium phosphate pH 7.2 buffer) and 6 mls CH2 Cl2 :EtoH (9:1 by volume). Samples are capped and shaken gently for 10 minutes. Samples are centrifuges at 2500 rpm for 10 minutes (4° C.). The aqueous layer is aspirated to waste and the organic layer is transferred to a conical centrifuge tube and evaporated to dryness with a stream of dry air and low heat ([…]). Samples are reconstituted with 0.2 ml mobile phase followed by vortexing. Samples are centrifuges at 2500 rpm for 10 minutes to separate precipitate. The supernatant is transferred to a WISP vial with plastic insert for HPLC analysis.

Compound | MIC (Stap. Aureus CMX 553) [µg/mL] | MIC (Strep. pyogenes EES 61) [µg/mL] | MIC (E. Coli Juhl [1]) [µg/mL] | MIC (Ps. Aeruginosa A5007) [µg/mL] | SC (ED50) (E. Coli Juhl [2]) [mg/kg/day] | Oral (ED50) (E. Coli Juhl [2]) [mg/kg/day] | SC (ED50) (P. Aeruginosa A5007) [mg/kg/day] | Oral (ED50) (P. Aeruginosa A5007) [mg/kg/day] | SC (ED50) (Stap. Aureus NCTC 10649) [mg/kg/day] | Oral (ED50) (Stap. Aureus NCTC 10649) [mg/kg/day] | Half Life Dog [3] | Solubility pH 7.4 [mg/ml]
NCC(=O)NC1CCN(c2nc3c(cc2F)c(=O)c(C(=O)O)cn3-c2ccc(F)cc2F)C1 (stereo not shown) [Example 7] | 1.56 (≈ 3.38 µM) | 0.78 (≈ 1.69 µM) | 0.78 (≈ 1.69 µM) | 12.5 (≈ 27.1 µM) | 0.3 | 5.0 | 4.2 | 11.4 | 0.9 | 2.4 |  | 
CC(N)C(=O)NC(Cc1ccccc1)C(=O)NC1CCN(c2nc3c(cc2F)c(=O)c(C(=O)O)cn3-c2ccc(F)cc2F)C1 (stereo not shown) [Example 11] | 16.0 (≈ 25.7 µM) |  | 16 (≈ 25.7 µM) | 128 (≈ 206 µM) |  |  | 9.7 | 65.3 | 0.7 | 2.0 | 10.4 m | 0.59
NC(Cc1ccc(O)cc1)C(=O)NC1CCN(c2nc3c(cc2F)c(=O)c(C(=O)O)cn3-c2ccc(F)cc2F)C1 (stereo not shown) [Example 13] | 12.5 (≈ 22 µM) | 12.5 (≈ 22 µM) | 12.5 (≈ 22 µM) | 50 (≈ 88.1 µM) |  |  | 9.1 | 15.1 | 0.4 | 1.7 |  | 0.06
CC(N)C(=O)NC1CCN(c2nc3c(cc2F)c(=O)c(C(=O)O)cn3-c2ccc(F)cc2F)C1 (stereo not shown) [Example 17] | 2.0 (≈ 4.21 µM) |  | 0.5 (≈ 1.05 µM) | 16 (≈ 33.7 µM) | 0.4 | 2.0 | 5.7 | 12.5 | 0.7 | 1.7 | 97.0 s | 0.12
CC(C)CC(N)C(=O)NC1CCN(c2nc3c(cc2F)c(=O)c(C(=O)O)cn3-c2ccc(F)cc2F)C1 (stereo not shown) [Example 21] | 1.56 (≈ 3.01 µM) | 6.2 (≈ 12 µM) | 1.56 (≈ 3.01 µM) | 25 (≈ 48.3 µM) |  |  | 3.9 | 12.5 | 0.5 | 2.4 | 55.8 s | 0.14
CSCCC(N)C(=O)NC1CCN(c2nc3c(cc2F)c(=O)c(C(=O)O)cn3-c2ccc(F)cc2F)C1 (stereo not shown) [Example 23] | 3.12 (≈ 5.83 µM) | 3.12 (≈ 5.83 µM) | 3.12 (≈ 5.83 µM) | 5.0 (≈ 9.34 µM) |  |  | 3.1 | 11.5 | 0.5 | 1.5 | 99.1 s | 
CCCC(N)C(=O)NC1CCN(c2cc3c(cc2F)c(=O)c(C(=O)O)cn3-c2ccc(F)cc2)C1 (stereo not shown) [Example 26h] |  |  | 0.78 (≈ 1.61 µM) |  | 0.8 | 12.1 | 8.5 | 101.3 | 1.0 | 4.0 | 51.1 s | 
CCCC(N)C(=O)NC1CCN(c2nc3c(cc2F)c(=O)c(C(=O)O)cn3-c2ccc(F)cc2)C1 (stereo not shown) [Example 26i] |  | 1.56 (≈ 3.21 µM) |  |  |  |  |  |  | 0.7 | 5.3 | 108.1 s | 
Cl.NCC(=O)N[C@@H](Cc1ccccc1)C(=O)NC1CCN(c2cc3c(cc2F)c(=O)c(C(=O)O)cn3-c2ccc(F)cc2F)C1 (stereo partly drawn) [Example 26jj, 1-(2,4-Difluorophenyl)-6-Fluoro-7-(3-Gly-L-Phe-Amino-1-Pyrrolidinyl)-1,4-Di hydro-4-Oxo-Quinoline-3-Carboxylic Acid Hydrochloride] |  |  | 16 |  |  |  |  |  |  |  |  | 
O=C(O)c1cn(-c2ccc(F)cc2F)c2nc(N3CCC(NC(=O)C4CCCN4)C3)c(F)cc2c1=O (stereo not shown) [Example 28] | 1.56 (≈ 3.11 µM) | 1.56 (≈ 3.11 µM) | 1.56 (≈ 3.11 µM) | 12.5 (≈ 24.9 µM) |  |  | 3.1 | 51.3 | 0.5 | 3.2 | 41 m | 
CCC[C@H](NC(=O)CNC(=O)CN)C(=O)NC1CCN(c2nc3c(cc2F)c(=O)c(C(=O)O)cn3-c2ccc(F)cc2F)C1 (stereo partly shown) [Example 30] | 25 (≈ 40.5 µM) | 100 (≈ 162 µM) | 25 (≈ 40.5 µM) | > 100 |  |  | 4.8 | 3.3 | 0.7 | 2.2 |  | 
CS(=O)(=O)CC[C@H](N)C(=O)NC1CCN(c2nc3c(cc2F)c(=O)c(C(=O)O)cn3-c2ccc(F)cc2F)C1 (stereo partly drawn) [Example 31c, 7-[3-L-Methioninesulfone-Amino-1-Pyrrolidinyl]-1-(2,4-Difluorophenyl)-6-Flu oro-1,4-Dihydro-4-Oxo 1.8-Naphthyridine-3-Carboxylic Acid Hydrochloride] |  | 25 |  |  | 0.2 | 1.8 | 2.4 | 7.8 | 0.5 | 1.8 |  | 
N[C@@H](Cc1cnc[nH]1)C(=O)NC1CCN(c2nc3c(cc2F)c(=O)c(C(=O)O)cn3-c2ccc(F)cc2F)C1 (stereo partly drawn) [Example 44c, 7-(3-L-histidine-amino-1-pyrrolidinyl)-1-(2,4-difluorophenyl)-6-fluoro-1,4-dihydro-4-oxo-1,8-naphthyridine-3-carboxylic acid hydrochloride] |  |  |  | > 64 |  |  | 8.3 | 51.3 | 0.7 | 4.0 |  | 
N[C@@H](CC(=O)O)C(=O)NC1CCN(c2nc3c(cc2F)c(=O)c(C(=O)O)cn3-c2ccc(F)cc2F)C1 (stereo partly drawn) [Example 45, 7-(3-L-Asp-amino-1-pyrrolidinyl)-1-(2,4-difluorophenyl)-6-fluoro-1,4-dihyd ro-4-oxo-1,8-naphthyridine-3-carboxylic acid hydrochloride] |  |  |  |  |  |  | 6.6 | 13.0 | 0.7 | 1.5 |  | 2.40
Cl.Cl.NCCCC[C@H](N)C(=O)NC1CCN(c2nc3c(cc2F)c(=O)c(C(=O)O)cn3-c2ccc(F)cc2F)C1 (stereo partly shown) [Example 46, 7-(3-Lys-amino-1-pyrrolidinyl)-1-(2,4-difluorophenyl)-6-fluoro-1,4-dihydro-4-oxo-1,8-naphthyridine-3-carboxylic acid dihydrochloride] | 100 | 100 |  | > 100 |  |  | 4.5 | 12.5 | 0.7 | 3.4 | 46 m | 
CC(C)C[C@H](NC(=O)[C@@H](N)CC(C)C)C(=O)NC1CCN(c2nc3c(cc2F)c(=O)c(C(=O)O)cn3-c2ccc(F)cc2F)C1 (stereo partly drawn) [Example 55q, 7-(3 Leu-Leu-amino-1-pyrrolidinyl)-6-fluoro-1-(2,4-difluorophenyl)-1,4-dihydro- 4-oxo-1,8-naphthyridine-3-carboxylic acid] |  |  |  |  |  |  |  |  |  |  |  | 0.19
CC(C)C[C@H](NC(=O)[C@H](C)N)C(=O)NC1CCN(c2nc3c(cc2F)c(=O)c(C(=O)O)cn3-c2ccc(F)cc2F)C1 (stereo partly drawn) [Example 55r, 7-(3-Ala-Leu-amino-1-pyrrolidinyl)-6-fluoro-1-(2,4-difluorophenyl)-1,4-dih ydro-4-oxo-1,8-naphthyridine-3-carboxylic acid] |  |  |  |  |  |  |  |  |  |  |  | 2.0
